# From US20230114728A1 (Venatorx Pharmaceuticals, Inc., priority 2019, published 2023)
# Target: T1, A. baumannii PBP2 (Acinetobacter baumannii, UniProt D0C8Z9)
# T1 construct: made in house
# T1 sequence (D0C8Z9 1-672): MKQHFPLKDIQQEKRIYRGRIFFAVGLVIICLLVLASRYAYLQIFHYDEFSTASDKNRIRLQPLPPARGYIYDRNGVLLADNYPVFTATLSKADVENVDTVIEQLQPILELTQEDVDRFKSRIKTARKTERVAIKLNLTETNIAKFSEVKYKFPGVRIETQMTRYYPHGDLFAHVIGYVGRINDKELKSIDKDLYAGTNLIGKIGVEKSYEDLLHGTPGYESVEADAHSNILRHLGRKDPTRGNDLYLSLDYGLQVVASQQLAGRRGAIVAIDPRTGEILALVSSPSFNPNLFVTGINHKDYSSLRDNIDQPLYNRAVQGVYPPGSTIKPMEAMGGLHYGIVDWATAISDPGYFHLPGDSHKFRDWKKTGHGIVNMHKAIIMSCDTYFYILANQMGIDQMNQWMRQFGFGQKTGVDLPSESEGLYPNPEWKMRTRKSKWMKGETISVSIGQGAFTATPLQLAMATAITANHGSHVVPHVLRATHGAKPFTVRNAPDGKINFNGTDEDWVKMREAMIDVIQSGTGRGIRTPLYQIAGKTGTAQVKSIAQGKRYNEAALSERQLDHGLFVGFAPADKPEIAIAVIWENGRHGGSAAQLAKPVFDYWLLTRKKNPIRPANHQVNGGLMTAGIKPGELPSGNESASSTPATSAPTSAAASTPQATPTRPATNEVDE
# Assay: Bocillin-FL fluorescence polarization competition binding assay, A. baumannii PBP2
# Conditions: fluorescence polarization competition binding assay using Bocillin-FL; read-out: A. baumannii PBP2 Potency
# In short: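 Fluorescence polarization (ex 490/em 520 nm) competition of inhibitors against Bocillin-FL at 0.1 μM, read up to 60 min. Final PBP levels: E. coli PBP3 1.5 μM; A. baumannii PBP2 2.5 μM, PBP3 0.2 μM in Tris pH 8.0/NaCl/glycerol/Tween 20; N. gonorrhoeae PBP2 […] in Hepes pH 8.0/NaCl/glycerol. EC50 = concentration halving PBP-bound Bocillin-FL.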
row,Compound,EC50
1,"CCN1CCN(C(=O)N[C@@H](C(=O)N[C@H]2Cc3cccc(C(=O)O)c3OB2O)c2c(O)cc(O)cc2F)C(=O)C1=O (single isomer, unassigned) [Example 182]",> 100 µM
2,"CS(=O)(=O)N1CCN(C(=O)N[C@@H](C(=O)N[C@H]2Cc3ccc(F)c(C(=O)O)c3OB2O)c2cc(F)c(O)c(O)c2Cl)C1=O (single isomer, unassigned) [Example 189]",> 100 µM
3,"O=C(NCCCN1CCN(C(=O)NC(C(=O)N[C@H]2Cc3ccc(F)c(C(=O)O)c3OB2O)c2ncc(O)cc2F)C(=O)C1=O)c1ccc(O)c(O)c1Cl (stereo partly drawn) [Example 3, (3R)-3-(2-(4-(3-(2-chloro-3,4-dihydroxybenzamido)propyl)-2,3-dioxopiperazine-1-carboxamido)-2-(3-fluoro-5-hydroxypyridin-2-yl)acetamido)-7-fluoro-2-hydroxy-3,4-dihydro-2H-benzo[e][1,2]oxaborinine-8-carboxylic acid]",> 100 µM
4,"NCCCN1CCN(C(=O)N[C@@H](C(=O)N[C@H]2Cc3cc(Cl)c(F)c(C(=O)O)c3OB2O)c2c(F)cc(O)c(O)c2Cl)C(=O)C1=O [Example 190, (R)-3-((R)-2-(4-(3-aminopropyl)-2,3-dioxopiperazine-1-carboxamido)-2-(2-chloro-6-fluoro-3,4-dihydroxyphenyl)acetamido)-6-chloro-7-fluoro-2-hydroxy-3,4-dihydro-2H-benzo[e][1,2]oxaborinine-8-carboxylic acid]",> 100 µM
5,"CCN1CCN(C(=O)N[C@@H](C(=O)N[C@H]2Cc3cc(Cl)c(F)c(C(=O)O)c3OB2O)c2c(F)cc(O)c(O)c2Cl)C(=O)C1=O [Example 191, (R)-6-chloro-3-((R)-2-(2-chloro-6-fluoro-3,4-dihydroxyphenyl)-2-(4-ethyl-2,3-dioxopiperazine-1-carboxamido)acetamido)-7-fluoro-2-hydroxy-3,4-dihydro-2H-benzo[e][1,2]oxaborinine-8-carboxylic acid]",30 to 100 µM
